pKi: −log10 of the molar value.
Molecular target: native rat brain NR2B receptors (Rattus norvegicus (Rat), UniProt P35439+Q00960)
Experiment: NR2B radioligand binding assay in rat brain using [3H] (E)-N1-(2-methoxybenzyl)-cinnamidine
Conditions: rat brain NR2B receptors; mean of replicates; read-out: Arithmetic Mean Ki

native rat brain NR2B receptors, sequence (Q00960 27-1482, other chains not shown): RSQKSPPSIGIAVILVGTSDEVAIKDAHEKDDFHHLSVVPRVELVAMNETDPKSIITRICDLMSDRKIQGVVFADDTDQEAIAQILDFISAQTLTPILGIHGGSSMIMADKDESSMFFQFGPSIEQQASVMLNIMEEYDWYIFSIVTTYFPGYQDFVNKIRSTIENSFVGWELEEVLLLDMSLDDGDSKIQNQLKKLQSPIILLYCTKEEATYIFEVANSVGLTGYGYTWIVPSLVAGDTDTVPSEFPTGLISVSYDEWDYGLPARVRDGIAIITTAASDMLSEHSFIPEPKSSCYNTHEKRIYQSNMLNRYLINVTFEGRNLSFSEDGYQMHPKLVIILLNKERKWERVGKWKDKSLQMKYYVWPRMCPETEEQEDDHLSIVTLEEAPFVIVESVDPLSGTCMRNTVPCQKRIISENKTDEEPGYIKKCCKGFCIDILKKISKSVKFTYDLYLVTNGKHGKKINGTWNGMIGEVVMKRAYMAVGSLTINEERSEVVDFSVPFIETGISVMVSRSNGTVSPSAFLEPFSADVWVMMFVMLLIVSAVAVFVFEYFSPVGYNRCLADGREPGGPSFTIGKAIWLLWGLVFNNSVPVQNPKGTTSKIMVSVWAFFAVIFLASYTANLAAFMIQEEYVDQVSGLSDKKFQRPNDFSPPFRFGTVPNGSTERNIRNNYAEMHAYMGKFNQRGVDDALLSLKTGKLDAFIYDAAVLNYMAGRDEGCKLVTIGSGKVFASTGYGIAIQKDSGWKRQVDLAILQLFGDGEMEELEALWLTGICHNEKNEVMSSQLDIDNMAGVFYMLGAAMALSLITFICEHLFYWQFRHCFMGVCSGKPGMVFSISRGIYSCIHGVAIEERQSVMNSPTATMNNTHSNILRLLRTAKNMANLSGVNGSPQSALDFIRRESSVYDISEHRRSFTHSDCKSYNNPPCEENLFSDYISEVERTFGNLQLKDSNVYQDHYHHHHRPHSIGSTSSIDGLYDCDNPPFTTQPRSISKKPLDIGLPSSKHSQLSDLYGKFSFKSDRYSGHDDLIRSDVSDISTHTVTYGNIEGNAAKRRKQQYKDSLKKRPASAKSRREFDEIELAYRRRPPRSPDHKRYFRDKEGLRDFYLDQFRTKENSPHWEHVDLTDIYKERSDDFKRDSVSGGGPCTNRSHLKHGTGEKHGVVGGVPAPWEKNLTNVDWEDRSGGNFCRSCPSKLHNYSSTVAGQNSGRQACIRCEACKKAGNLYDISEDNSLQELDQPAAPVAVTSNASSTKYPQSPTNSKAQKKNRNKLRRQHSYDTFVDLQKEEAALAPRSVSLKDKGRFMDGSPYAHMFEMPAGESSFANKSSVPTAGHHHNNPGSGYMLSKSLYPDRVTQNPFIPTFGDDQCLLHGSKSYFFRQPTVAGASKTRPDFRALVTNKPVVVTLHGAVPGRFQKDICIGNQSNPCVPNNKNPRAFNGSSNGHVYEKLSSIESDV

pKi: 8.32
Structure (SMILES): Cc1ccc(COC(=O)N2CC[C@H](CNc3nccn4cnnc34)C(F)(F)C2)cc1 [E1-1.2^B′]
